From patent US8765720B2, “Combination therapy for the treatment of multiple myeloma” (Cephalon, Inc., priority 2009, dated 2014)

How the values were obtained:
[1] = system: LAGκ-1A tumor; assay: Intramuscular LAGκ-1A tumor xenograft model (serum hIgG, tumor volume); details: for serum hIgG levels: 28 days of treatment; for serum hIgG levels and tumor volume vs vehicle: alone or together
Protocol: Six- to 8-week-old male severe combined immunodeficient (SCID) mice were obtained from the Jackson Laboratory (Bar Harbor, Me.) and maintained in a specific pathogen-free area in our animal resources facility. All animal studies were conducted according to protocols approved by the Institutional Animal Care and Use Committee. Animals were anesthetized with ketamine, xylazine, and isoflurane prior to surgery and were euthanized when tumors reached 2 cm in diameter.
Biopsy tissue was surgically implanted in the hind limbs of anesthetized SCID mice and passaged through succeeding generations (32).
Myeloma tumors (LAGκ-1A or LAGκ-1B) were excised from an anesthetized donor mouse, sectioned into 20 to 40 mm^3 pieces, and surgically implanted into the left superficial gluteal muscle of anesthetized naive SCID mice. Recipient mice received weekly injections of anti-asialo GM1 rabbit serum (Wako Bioproducts, Richmond, Va.) to further suppress immune activity. Mice were blindly assigned to one of the experimental groups, and treatment was initiated 7 to 21 days after tumor implantation. COMPOUND 1 was administered via oral gavage daily (0.5-5.0 mg/kg) or twice weekly (5-10 mg/kg). COMPOUND 1 was also administered twice weekly (W, F) via either IV injection (0.5-3.0 mg/kg) or oral gavage (10 mg/kg), as specified. Melphalan (1 mg/kg) was provided via weekly intraperitoneal (IP) injections (W). Bortezomib (0.5 mg/kg) was dispensed twice weekly (T, Th) via IV injection. Control treatment consisted of COMPOUND 1 diluent (3.2 mL 5% mannitol and 800 μL propylene glycol) alone.
Mice bearing MM tumors underwent weekly retro-orbital bleeds. Resulting samples were spun at 13,000 rpm for 30 minutes to isolate serum. The hIgG ELISA kit (Bethyl Laboratories, Montgomery, Tex.) was used according to the manufacturer's specifications. Absorbance at 450 nm with a reference wavelength of 550 nm was determined on a μQuant microplate spectrophotometer with KC Junior software (Bio-Tek Instruments, Winooski, Vt.). Data graphed are the mean±SEM with n=7-8 mice/group.
As a direct measurement of tumor growth, calipers were used to assess tumor volume weekly, and the formula for an ellipsoid volume was applied ( 4/3π×[width/2]^2×[length/2]).
Percent inhibition of tumor growth is represented as the tumor volume of the test drug group over the tumor volume of the untreated group (T/C). The optimal value is the minimal T/C ratio that reflects the maximal tumor growth inhibition achieved. The criterion for efficacy for the T/C ratio is ≦42%, according to National Cancer Institute (NCI) standard criteria (44).
Efficacy of drug therapy against tumors was standardized to the time (t) required for the untreated tumor to grow to a determined size based on the greatest difference in time to reach a tumor volume between the control and treatment group. This value can be represented as the growth delay (in days) between treated and control (tt−tc) (44).
Tumor growth and hIgG levels were analyzed in terms of treatment group means and standard error. Student's t-test was applied to determine the statistical significance of differences between treatment groups. Minimal significance level was P<0.05.

[2] = system: MM1S cells; assay: Cell viability assay (MTS assay), MM1S cells; assay type: cell-based, human; details: 48 hours
Protocol: In vitro synergy between COMPOUND 1 and bortezomib or melphalan was assessed using the median effect method of Chou and Talalay (30). Combination indices (CIs) were calculated separately for each combination. […] CIs between 0.9 and 1.1 were considered to indicate additive drug effects (31).

[3] = system: RPMI8226 cells; assay: Cell viability assay (MTS assay), RPMI8226 cells; assay type: cell-based, human; details: RPMI8226, 48 hours
Protocol: Combination indices (CIs) were calculated separately for each combination. […] CIs between 0.9 and 1.1 were considered to indicate additive drug effects (31).

[4] = system: RPMI8226 cells; assay: Apoptotic assay by annexin V and propidium iodide staining; assay type: cell-based, human; details: 2.5 nM for each drug, 30 hours
Protocol: To quantify apoptosis in response to drug treatment, RPMI8226 cells (5×10^5 cells per well) were incubated with vehicle or PIs at 37° C. and 5% CO2 for 30 hours. As a positive control, cells were incubated with 250 ng/mL of actinomycin D for 24 or 48 hours. Cells were then washed twice with phosphate-buffered saline, resuspended in binding buffer (100 mM HEPES/NaOH, pH 7.5 containing 1.4 M NaCl and 25 mM CaCl2), and stained with fluorescein isothiocyanate (FITC)-conjugated annexin V and with the fluorescent dye propidium iodide (PrI), according to the manufacturer's protocol (BioVision, Mountain View, Calif.). For each drug treatment, 1×10^5 gated events were recorded. Cells negative for both PI and annexin V staining were considered live; annexin V-positive, PrI-negative cells were considered early apoptotic; annexin V-positive, PrI-positive cells were considered late apoptotic. Flow cytometric analyses were performed using a Beckman Coulter FC500 cytometer with Cytomics CXP software (Beckman Coulter, Fullerton, Calif.).

[5] = system: LAGλ-1; assay: LAGλ-1 MM tumor model; assay type: in vivo; details: COMPOUND 1 monotherapy
[6] = system: apoptosis-inducing factor (AIF); assay: Immunohistochemical analysis of AIF expression in LAGκ-1B tumors; assay type: in vivo, SCID mice; details: COMPOUND 1 1 mg/kg, bortezomib 0.5 mg/kg, alone or both; tumors excised post-treatment
Protocol: LAGκ-1B tumors were fixed in 4% paraformaldehyde and cut into 5 μm sections. Briefly, sections were blocked with Tris-buffered saline with 0.05% Tween-20 (TBST) and 3% BSA for 1 hour at room temperature and then incubated overnight with a rabbit antibody against AIF (Sigma, St. Louis, Mo.). The sections were washed three times with TBST and treated with horse radish […] anti-rabbit antibody (KPL, Gaithersburg, Md.) diluted 1:500 in TBST at room temperature for 2 hours. The slides were washed three times in TBST and placed in 3-amino-9-ethylcarbazole (AEC) buffer for 5 minutes, and color was detected using an AEC kit (Dako, Glostrup, Denmark). Staining was documented using an Olympus BX51 microscope (Olympus Imaging America Inc., Center Valley, Pa.) and analyzed by Microsuite Biological Suite program (Olympus BX51).

SMILES: CC(C)C[C@H](NC(=O)[C@@H](NC(=O)c1cccc(-c2ccccc2)n1)[C@@H](C)O)B(O)O [COMPOUND 1, [(1R)-1-[[(2S,3R)-3-hydroxy-2-[6-phenyl-pyridine-2-carbonyl)amino]-1-oxobutyl]amino]-3-methylbutylboronic acid]
- serum hIgG levels ([1]; 1 mg/kg and 3 mg/kg IV twice weekly, P=0.0001 / P=0.0002 vs control): essentially undetectable
- serum hIgG levels and tumor volume vs vehicle ([1]; COMPOUND 1 1 mg/kg IV, bortezomib 0.5 mg/kg IV, twice weekly): only partially inhibited
- reduction in the volume of tumors vs control ([1]; IV 1 or 3 mg/kg twice weekly, after 4 weeks, P=0.0001): approximately 15 fold
- serum hIgG levels and tumor volume vs vehicle ([1]; melphalan 1 mg/kg IP weekly, COMPOUND 1 1 mg/kg IV twice weekly, 3 weeks): nonsignificant decrease
- delay of tumor volume growth to 87.5 mm^3 ([1]; mouse, in vivo, po, 5 mg/kg): 53 days
- tumor inhibition (hIgG, tumor volume) ([1]; mouse, in vivo, po, 5 mg/kg): significant tumor inhibition
- mice died of drug-related toxicity ([1]; oral 5 mg/kg daily): Two of fifteen
- delay of tumor volume growth to 87.5 mm^3 ([1]; oral 5 mg/kg daily, vs untreated control): 530%
- mice surviving five weeks of dosing and three week follow-up ([1]; oral 10 mg/kg twice weekly): 15/15
- Percentage T/C ([1]; oral 10 mg/kg twice weekly, day 21): 29.3%
- Percentage T/C ([1]; oral 10 mg/kg twice weekly, day 28): 17.3%
- delay of tumor volume growth to 700 mm^3 ([1]; oral 10 mg/kg twice weekly, day 32.5 control vs day 63): 30.5 days
- Percentage T/C ([1]; oral 10 mg/kg twice weekly, day 35): 6.1%
- Percentage T/C ([1]; oral 10 mg/kg twice weekly, day 42): 6.1%
- Percentage T/C ([1]; oral 10 mg/kg twice weekly, day 49): 10.6%
- human paraprotein secretion and tumor volume ([1]; oral 10 mg/kg twice weekly, three weeks (day 28), hIgG P=0.0011, tumor volume P=0.001): significant inhibition of both human paraprotein secretion and reduction of tumor volume
- delay of tumor volume growth to 700 mm^3 ([1]; oral 10 mg/kg twice weekly, vs no treatment): 93.8%
- tumor volume vs control-treated tumors ([1]; oral (10 mg/kg twice weekly), 14 days of treatment, P=0.0002): marked reduction in tumor volume
- serum hIgG levels ([1]; oral (10 mg/kg twice weekly), P=0.0001): negligible
- serum hIgG levels vs control-treated animals ([1]; oral (10 mg/kg twice weekly), within 2 weeks of treatment, P=0.0007): significantly lower
- anti-myeloma activity (human IgG levels and tumor volumes) ([1]; oral, daily, 3 mg/kg): moderate anti-myeloma activity
- paraprotein secretion from tumors ([1]; single-agent IV twice weekly, escalating doses): dose-dependent decrease in paraprotein secretion
- inhibition of viability ([2]; COMPOUND 1 0.1-10 nM): concentration-dependent inhibition of viability
- cytotoxicity at 0.00175 µM ([2]; Homo sapiens, MM1.S, single-agent COMPOUND 1 1.75 nM, read-out: inhibition of cell viability): ~16%
- IC50 ([3]; Homo sapiens, RPMI-8226): 8.5 nM
- cytotoxicity at 0.009 µM ([3]; Homo sapiens, RPMI-8226, single-agent COMPOUND 1 9.0 nM, read-out: decrease in cell viability): 64%
- inhibition of viability ([3]; COMPOUND 1 0.1-10 nM): concentration-dependent inhibition of viability
- proportion of cells in early apoptosis (PrI−/Annexin V+) [4]: 10.4 % of cells
- Ig levels and tumor volumes [5]: statistically significant reduction
- AIF expression vs vehicle-treated tumors [6]: elevated AIF expression
